Assay results from article PMC6917776, “Discovery of a chemical probe for PRDM9” (Nature Communications, 2019).
Values joined by “and” are separate entries in the source; they are usually repeats but may differ in a detail not shown here. Equal values may be shown once. Read-outs that look alike come from different tables or passages of the source.

Columns and labels:
SUV39H2 = target: T1, SUV39H2 (Homo sapiens, UniProt Q9H5I1); assay: Methyltransferase selectivity assay (SPA); type: biochemical
T1 construct: purchased Structural Genomics Consortium (SGC Toronto) in-house methyltransferase panel
T1 sequence (Q9H5I1 whole entry): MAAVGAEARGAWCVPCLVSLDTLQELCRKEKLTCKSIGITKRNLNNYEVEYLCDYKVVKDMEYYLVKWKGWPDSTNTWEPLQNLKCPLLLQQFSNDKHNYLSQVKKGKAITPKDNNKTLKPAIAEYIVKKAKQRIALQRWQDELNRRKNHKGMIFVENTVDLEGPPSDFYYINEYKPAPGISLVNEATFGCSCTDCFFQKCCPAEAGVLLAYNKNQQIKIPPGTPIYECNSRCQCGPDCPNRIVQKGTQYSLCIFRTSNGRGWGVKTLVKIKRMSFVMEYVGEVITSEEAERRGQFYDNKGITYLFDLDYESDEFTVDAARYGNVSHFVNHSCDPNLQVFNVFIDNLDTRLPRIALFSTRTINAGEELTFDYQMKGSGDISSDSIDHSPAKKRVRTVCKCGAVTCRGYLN
Description: (§1) Selectivity against methyltransferases were determined as described previously. Details of the assays are described in the supplementary methods.
(§2) Methyltransferase selectivity assay1
(§3) The effect of chemical probes and negative controls on the methyltransferase activities of protein, DNA and RNA methyltransferases was tested by radiometric assays using 3H-SAM. For proteins such as MLL1 trimeric, MLL3 pentameric, EZH1 (PRC2) pentameric, and EZH2 (PRC2) trimeric complexes, as well as G9a, GLP, SUV39H1, SUV39H2, SUV420H1, SUV420H2, SETD2, SETD8, SETDB1, SETD7, PRMT1, PRMT3, PRMT4, PRMT5/ MEP50 complex, PRMT6, PRMT7, PRMT8, PRMT9, PRDM9, SMYD2, SMYD3, DNMT1, and BCDIN3D the incorporation of a tritium-labeled methyl group into biotinylated substrate was monitored using scintillation proximity assay (SPA). Briefly, a 10 µL reaction containing 3H-SAM and substrate at concentrations close to the apparent Km values for each enzyme (balanced conditions) was prepared. The reactions were quenched with 10 µL of 7.5 M guanidine hydrochloride; 180 µL of 20 mM Tris buffer (pH 8.0) were added, and the mixture was transferred to a 96-well FlashPlate and incubated for 1 h. The counts per minute (CPM) was measured on a TopCount plate reader. The CPM in the absence of compound or enzyme was defined as 100% activity and background (0%), respectively, for each dataset. […]

SUV420H2 = target: T2, SUV420H2 (Homo sapiens, UniProt Q86Y97); assay: Methyltransferase selectivity assay (SPA); type: biochemical
T2 construct: purchased Structural Genomics Consortium (SGC Toronto) in-house methyltransferase panel
T2 sequence (Q86Y97 whole entry): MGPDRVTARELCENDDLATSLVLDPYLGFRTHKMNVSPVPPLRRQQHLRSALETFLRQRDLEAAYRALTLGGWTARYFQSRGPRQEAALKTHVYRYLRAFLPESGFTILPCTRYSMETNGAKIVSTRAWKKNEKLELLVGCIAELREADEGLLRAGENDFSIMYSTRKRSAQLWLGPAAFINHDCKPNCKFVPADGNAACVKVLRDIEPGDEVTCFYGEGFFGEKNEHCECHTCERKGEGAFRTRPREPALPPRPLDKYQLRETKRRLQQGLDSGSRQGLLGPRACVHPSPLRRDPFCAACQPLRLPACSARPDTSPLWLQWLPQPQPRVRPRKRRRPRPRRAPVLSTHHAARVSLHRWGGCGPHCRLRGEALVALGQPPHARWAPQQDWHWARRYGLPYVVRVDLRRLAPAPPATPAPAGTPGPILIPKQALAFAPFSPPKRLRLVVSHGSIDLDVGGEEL
Description: as §1, §2, §3

DNMT1 = target: T3, DNMT1 (Homo sapiens, UniProt P26358); assay: Methyltransferase selectivity assay (SPA); type: biochemical
T3 construct: purchased Structural Genomics Consortium (SGC Toronto) in-house methyltransferase panel
T3 sequence (P26358 whole entry): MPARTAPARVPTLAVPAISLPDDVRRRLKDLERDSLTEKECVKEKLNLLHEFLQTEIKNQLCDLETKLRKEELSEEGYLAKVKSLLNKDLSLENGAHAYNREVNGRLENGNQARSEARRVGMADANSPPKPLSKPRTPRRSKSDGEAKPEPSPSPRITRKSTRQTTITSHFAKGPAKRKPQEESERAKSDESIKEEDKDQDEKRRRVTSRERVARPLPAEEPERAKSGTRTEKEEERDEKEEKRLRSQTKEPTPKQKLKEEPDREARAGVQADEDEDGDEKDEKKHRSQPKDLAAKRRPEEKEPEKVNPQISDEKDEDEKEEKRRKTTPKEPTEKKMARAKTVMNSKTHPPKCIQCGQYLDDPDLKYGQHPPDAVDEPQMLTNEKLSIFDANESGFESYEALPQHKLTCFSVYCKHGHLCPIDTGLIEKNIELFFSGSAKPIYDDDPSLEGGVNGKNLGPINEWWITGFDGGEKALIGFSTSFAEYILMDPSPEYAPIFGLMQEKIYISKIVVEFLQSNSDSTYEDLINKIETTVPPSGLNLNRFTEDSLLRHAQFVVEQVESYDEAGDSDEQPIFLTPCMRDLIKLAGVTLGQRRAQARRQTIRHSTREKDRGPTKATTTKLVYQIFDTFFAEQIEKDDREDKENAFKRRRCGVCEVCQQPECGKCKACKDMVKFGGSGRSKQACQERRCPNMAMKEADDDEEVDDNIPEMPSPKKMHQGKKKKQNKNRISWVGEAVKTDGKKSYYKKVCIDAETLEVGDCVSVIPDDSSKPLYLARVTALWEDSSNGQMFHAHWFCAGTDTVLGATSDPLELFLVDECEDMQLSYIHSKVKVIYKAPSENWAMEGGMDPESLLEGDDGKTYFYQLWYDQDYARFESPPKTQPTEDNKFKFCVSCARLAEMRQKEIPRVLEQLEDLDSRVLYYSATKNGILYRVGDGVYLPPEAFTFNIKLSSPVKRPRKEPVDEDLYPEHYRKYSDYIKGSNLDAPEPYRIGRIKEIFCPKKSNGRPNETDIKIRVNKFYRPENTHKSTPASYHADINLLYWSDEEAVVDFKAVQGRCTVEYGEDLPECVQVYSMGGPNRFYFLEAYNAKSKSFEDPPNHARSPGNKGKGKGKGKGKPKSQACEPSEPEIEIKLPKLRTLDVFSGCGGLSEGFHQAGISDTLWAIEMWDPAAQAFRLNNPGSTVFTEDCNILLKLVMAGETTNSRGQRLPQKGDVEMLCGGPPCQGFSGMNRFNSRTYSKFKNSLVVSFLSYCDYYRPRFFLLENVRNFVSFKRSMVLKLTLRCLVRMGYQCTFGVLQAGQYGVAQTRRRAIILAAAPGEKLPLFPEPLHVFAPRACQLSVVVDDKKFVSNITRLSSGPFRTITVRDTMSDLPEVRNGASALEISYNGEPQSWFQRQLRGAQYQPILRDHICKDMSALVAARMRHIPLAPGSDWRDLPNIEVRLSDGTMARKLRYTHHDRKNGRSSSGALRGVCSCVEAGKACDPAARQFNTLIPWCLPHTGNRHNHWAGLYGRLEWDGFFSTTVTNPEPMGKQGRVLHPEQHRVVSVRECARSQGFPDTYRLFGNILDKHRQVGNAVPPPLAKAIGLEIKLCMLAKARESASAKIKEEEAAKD
Description: as §1, §2
as §3, with “dataset. For DNMT1, the double-stranded DNA substrate was prepared by annealing two complementary strands (biotinylated forward strand: B-[…] and reverse strand:” for “dataset.”

PRDM9 = PRDM9 (Homo sapiens, UniProt Q9NQV7); assay: PRDM9 cellular assay: H3K4me3 of exogenous H3-GFP in HEK293T cells (western blot); type: cell-based; settings: for IC50: H3-GFP and PRDM9-FLAG co-transfected, 20 h of treatment, read-out: IC50, PRDM9-dependent trimethylation of ectopic H3K4
PRDM9, sequence (Q9NQV7 whole entry): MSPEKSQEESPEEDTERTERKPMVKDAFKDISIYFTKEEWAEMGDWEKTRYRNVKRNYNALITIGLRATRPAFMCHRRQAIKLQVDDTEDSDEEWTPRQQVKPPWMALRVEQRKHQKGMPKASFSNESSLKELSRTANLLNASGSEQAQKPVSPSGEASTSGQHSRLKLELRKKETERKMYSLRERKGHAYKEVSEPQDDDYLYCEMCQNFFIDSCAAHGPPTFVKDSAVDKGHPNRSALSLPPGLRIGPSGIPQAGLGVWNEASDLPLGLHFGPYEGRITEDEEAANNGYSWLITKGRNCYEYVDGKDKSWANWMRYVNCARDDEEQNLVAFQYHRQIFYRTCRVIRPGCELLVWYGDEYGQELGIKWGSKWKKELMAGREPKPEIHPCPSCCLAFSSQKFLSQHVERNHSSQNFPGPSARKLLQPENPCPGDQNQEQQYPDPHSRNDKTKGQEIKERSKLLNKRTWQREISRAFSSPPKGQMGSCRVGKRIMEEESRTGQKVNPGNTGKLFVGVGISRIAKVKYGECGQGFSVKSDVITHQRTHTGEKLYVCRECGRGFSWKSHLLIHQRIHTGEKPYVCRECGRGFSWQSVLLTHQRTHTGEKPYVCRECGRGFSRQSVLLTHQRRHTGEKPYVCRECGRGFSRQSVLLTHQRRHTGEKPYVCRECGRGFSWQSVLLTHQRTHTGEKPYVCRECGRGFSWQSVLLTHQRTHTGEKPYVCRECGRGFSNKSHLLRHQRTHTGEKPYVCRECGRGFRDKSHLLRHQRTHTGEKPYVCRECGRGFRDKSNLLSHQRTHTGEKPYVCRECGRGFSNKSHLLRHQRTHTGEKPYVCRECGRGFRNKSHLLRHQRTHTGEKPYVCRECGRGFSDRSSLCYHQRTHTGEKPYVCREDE
Description: HEK293T cells were co-transfected with H3-GFP and PRDM9-FLAG and treated with compounds at indicated concentrations for 20 h. Mut denotes PRDM9 catalytic mutant (Y357S). […] Cells were treated with compounds for 1 day. Cell number was measured using IncuCyte™ ZOOM live cell imaging device. The results are mean ± sd, n = 3. Source data are provided as a Source Data file.
HEK293T (kind gift from Sam Benchimol, York University), or MCF7 (ATCC® HTB-22™), cells were plated (12 well plates) and next day co-transfected with 0.1 (HEK293T) or 0.2 (MCF7) µg of GFP-tagged histone H3 and with 0.1 (HEK293T) or 0.2 (MCF7) µg of Flag-tagged PRDM9/PRDM9 catalytic mutant (Y357S) and 0.8 or 0.6 µg of empty vector using JetPRIME® transfection reagent, following manufacturer instructions. After 4 h media was removed and cells were treated with compounds for 20 h. Next day, cells were lysed in lysis buffer (20 mM Tris-HCl pH 8, 150 mM NaCl, 1 mM EDTA, 10 mM MgCl2, 0.5% TritonX-100, 12.5 U mL^−1 benzonase (Sigma), complete EDTA-free protease inhibitor cocktail (Roche)). After 2 min incubation at RT, SDS was added to final 1% concentration. Cell lysates were analyzed in western blot for GFP and H3K4me3 levels. All cell lines were mycoplasma negative, as determined by MycoAlert™ Mycoplasma Detection Kit (Lonza).
Total cell lysates were resolved in 4–12% Bis-Tris Protein Gels (Invitrogen) and transferred in for 1.5 h (80 V) onto PVDF membrane (Millipore) in Tris-Glycine transfer buffer containing 20% MeOH and 0.05% SDS. Blots were blocked for 1 h in blocking buffer (5% milk in PBS) and incubated with primary antibodies anti-GFP (1:3000, Clontech # 632381), anti-H3K4me3 (1:1000, Millipore, #04-745), anti-histone H3 (1:2000, #ab10799, Abcam), anti-Flag (1:5000, #F4799, Sigma) in blocking buffer (5% BSA in 0.1% Tween 20 PBS) overnight at 4 °C. After five washes with 0.1% Tween 20 PBS the blots were incubated with goat-anti rabbit (IR800) and donkey anti-mouse (IR 680) antibodies (1:5000) in Odyssey Blocking Buffer (LiCor) for 1 h at RT and washed five times with 0.1% Tween 20 PBS. The signal was read on an Odyssey scanner (LiCor) at 800 nm and 700 nm and analyzed with Image Studio Ver.5.2 software.

HEK293T cells = assay: Cell growth, IncuCyte ZOOM cell number; type: cell-based; settings: for HEK293T cell growth (in words): 24 h of treatment; for Cell# - toxocity data, % Control: HEK293T-1day, Figure 6c, technical replicates
[1] = 10µM compound, Exp1, Exp2, 10 µM
[2] = HEK-293T, 20 h, Figure 6b, replicates, read-out: H3K4me3/GFP - western blot, % control
[3] = 1µM compound, Exp1, Exp2, read-out: Activity %
[4] = 10µM compound, Exp1, Exp2, read-out: Activity %

Compound COc1cc(OC)cc(-c2noc(N3CCN(C)C4(CCN(c5ccccc5)CC4)C3)n2)c1 [MRK-740 -NC] has an activity at 1 µM (SUV39H2; 1µM compound, Exp1, Exp2) of 93%, an activity at 10 µM (SUV39H2; 10µM compound, Exp1, Exp2) of 86% and an Activity % (SUV39H2; [1]) of 96%. It also gave an activity at 1 µM (SUV420H2; 1µM compound, Exp1, Exp2) of 106%, an activity at 10 µM (SUV420H2; 10µM compound, Exp1, Exp2) of 98% and an Activity % (SUV420H2; [1]) of 103%. The activity at 1 µM (DNMT1; 1µM compound, Exp1, Exp2) was 105%, the activity at 10 µM (DNMT1; 10µM compound, Exp1, Exp2) was 102% and the Activity % (DNMT1; [1]) was 98%.
COc1cc(OC)cc(-c2noc(N3CCN(C)C4(CCN(c5ccccc5)CC4)C3)n2)c1 [MRK-740-NC] was tested, and the IC50 (PRDM9) was greater than 10000 nM, the remaining activity at 0.256 µM (PRDM9; HEK-293T, 20 h, 0.256 µM, Figure 6b, replicates, read-out: H3K4me3/GFP - western blot, % control) was 100% and the remaining activity at 0.64 µM (PRDM9; HEK-293T, 20 h, 0.64 µM, Figure 6b, replicates, read-out: H3K4me3/GFP - western blot, % control) was 89.9%. It also gave a remaining activity at 1.6 µM (PRDM9; HEK-293T, 20 h, 1.6 µM, Figure 6b, replicates, read-out: H3K4me3/GFP - western blot, % control) of 103%, a remaining activity at 3.33334 µM (PRDM9; [2]) of 113% and a remaining activity at 4 µM (PRDM9; HEK-293T, 20 h, 4 µM, Figure 6b, replicates, read-out: H3K4me3/GFP - western blot, % control) of 111%. The remaining activity at 10 µM (PRDM9; HEK-293T, 20 h, 10 µM, Figure 6b, replicates, read-out: H3K4me3/GFP - western blot, % control) was 116%, the “HEK293T cell growth (in words)” value (HEK293T cells; 3 µM) was “neither compound affected HEK293T cell growth” and the “Cell# - toxocity data, % Control” value (HEK293T cells; 1 µM) was 113.12 % Control and 118.767 % Control and 86.3705 % Control. The “Cell# - toxocity data, % Control” value (HEK293T cells; 3 µM) was 125.539 % Control and 114.582 % Control and 84.3363 % Control, the “Cell# - toxocity data, % Control” value (HEK293T cells; 5 µM) was 86.195 % Control and 121.075 % Control and 87.3323 % Control and the “Cell# - toxocity data, % Control” value (HEK293T cells; 10 µM) was 76.5766 % Control and 74.1915 % Control and 52.2642 % Control.
Work on COc1cc(OC)cc(-c2noc(N3CCN(C)C4(CCN(c5ccnc(C)c5)CC4)C3)n2)c1 [MRK-740] yielded an Activity % (SUV39H2; 1µM compound, Exp1, Exp2, 1 µM) of 89%, an activity at 1 µM (SUV39H2; [3]) of 92% and an Activity % (SUV39H2; [1]) of 90%. For the same compound, the activity at 10 µM (SUV39H2; [4]) was 92%, the Activity % (SUV420H2; 1µM compound, Exp1, Exp2, 1 µM) was 95% and the activity at 1 µM (SUV420H2; [3]) was 97%. It also gave an Activity % (SUV420H2; [1]) of 103%, an activity at 10 µM (SUV420H2; [4]) of 100% and an Activity % (DNMT1; 1µM compound, Exp1, Exp2, 1 µM) of 95%. The activity at 1 µM (DNMT1; [3]) was 98%, the Activity % (DNMT1; [1]) was 101% and the activity at 10 µM (DNMT1; [4]) was 99%. The IC50 (PRDM9) was 800 ± 100 nM, the remaining activity at 0.123455 µM (PRDM9; HEK-293T, 20 h, 0.123455 µM, Figure 6b, replicates, read-out: H3K4me3/GFP - western blot, % control) was 109% and the remaining activity at 0.370374 µM (PRDM9; HEK-293T, 20 h, 0.370374 µM, Figure 6b, replicates, read-out: H3K4me3/GFP - western blot, % control) was 89.7%. The remaining activity at 1.11111 µM (PRDM9; HEK-293T, 20 h, 1.11111 µM, Figure 6b, replicates, read-out: H3K4me3/GFP - western blot, % control) was 25.7%, the remaining activity at 3.33334 µM (PRDM9; [2]) was 11.4% and the remaining activity at 30 µM (PRDM9; HEK-293T, 20 h, 30 µM, Figure 6b, replicates, read-out: H3K4me3/GFP - western blot, % control) was 3.21%. The IC90 (PRDM9; HEK-293T, read-out: IC90, PRDM9-dependent H3K4 trimethylation in cells) was 3000 nM, the “HEK293T cell growth (in words)” value (HEK293T cells; 3 µM) was “neither compound affected HEK293T cell growth” and the “Cell# - toxocity data, % Control” value (HEK293T cells; 1 µM) was 89.1325 % Control and 119.658 % Control and 130.764 % Control. For the same compound, the “Cell# - toxocity data, % Control” value (HEK293T cells; 3 µM) was 81.2039 % Control and 117.832 % Control and 120.808 % Control, the “Cell# - toxocity data, % Control” value (HEK293T cells; 5 µM) was 86.208 % Control and 117.65 % Control and 129.14 % Control and the “Cell# - toxocity data, % Control” value (HEK293T cells; 10 µM) was 89.6654 % Control and 116.798 % Control and 107.394 % Control.
